Results taken from patent US5385829A, “Method of assaying for acyl-L-carnitines and short-chain acyl-carnitines” (priority 1990, dated 1995).

Assays:
[1] = test system: L-carnitine dehydrogenase; assay: Substrate specificity of L-carnitine dehydrogenase; format: biochemical; conditions: L-carnitine dehydrogenase from Alcaligenes sp. No. 981
Procedure: 1 ml of the reaction solution was placed in a small test tube and incubated at 37° C. for 5 mins. and thereto was added 0.02 ml of the […] solution to be examined, to cause the reaction, with agitation. After 10 mins. 2 ml of 0.1N aq. HCl were added thereto to terminate the reaction and the A550 nm of the solution was measured to obtained the absorbance A1.
On the other hand, the same procedures were repeated for a reaction solution in which the L-carnitine was omitted, to obtain the absorbance A0.

[2] = test system: L-carnitine dehydrogenase; assay: Km values and coenzyme reactivity of L-carnitine dehydrogenase; format: biochemical, Alcaligenes sp. No. 981; conditions: for Km: L-carnitine dehydrogenase, 100 mM tris-HCl buffer pH 9.0
Procedure: The L-carnitine dehydrogenase used in preparing the analysis reagent for determining the amount of L-carnitine, should have reactivity to the substrate, namely, L-carnitine, and may be employed in combination with a coenzyme such as an NAD (preferably NAD or thio-NAD). Such reactivity can be confirmed using the combination of such coenzyme with the substrate. For example, it has been confirmed that, when using L-carnitine as the substrate and thio-NAD as the coenzyme in 100 mM tris-HCl buffer solution (pH 9.0), the L-carnitine dehydrogenase produced from Alcaligenes sp.
Km value for NAD^+ was determined by varying the concentration of the NAD^+ in a reaction solution containing 100 mM tris-HCl buffer solution (pH 9.0). 5 units of diaphorase (a product of Toyo Jozo), 0.025% of NBT (a product of Wako Pure Chemical Ind.), 1% of Tween 80 (a product of Wako Pure Chemical Ind.) and 50 mM L-carnitine, whereby a value of 0.141 mM was obtained.

Compound | Relative Specificity % [1] [%] | Km [2] [µM] | Km ([2]; listed as NAD^+) [µM] | enzymatic activity relative to the activity when using NAD as the coenzyme ([2]; L-carnitine as substrate, 100 mM tris-HCl pH 9.0)
C[N+](C)(C)CC(=O)[O-] [Glycinebetaine] | 0 |  |  | 
C[N+](C)(C)C[C@H](O)CC(=O)[O-] [L-carnitine] | 100 | 9300 |  | 
NCCCC[C@H](N)C(=O)O [Lysine] | 0 |  |  | 
NC(=O)c1ccc[n+]([C@@H]2O[C@H](COP(=O)([O-])OP(=O)(O)OC[C@H]3O[C@@H](n4cnc5c(N)ncnc54)[C@H](O)[C@@H]3O)[C@@H](O)[C@H]2O)c1 [NAD, nicotinamide adenine dinucleotide] |  | 140 | 141 | 
NC(=S)c1ccc[n+]([C@@H]2O[C@H](COP(=O)([O-])OP(=O)(O)OC[C@H]3O[C@@H](n4cnc5c(N)ncnc54)[C@H](O)[C@@H]3O)[C@@H](O)[C@H]2O)c1 [thio-NAD, thionicotinamide adenine dinucleotide] |  | 490 |  | about 15%
Glucose | 0 |  |  | 
